Consider 4 molecules from the NIST ThermoML archive (doi:10.1021/je700035m).

± gives the expanded uncertainty stated by the source.

The conditions of data set [1]: Crystal; DTA.
Data set [2] in a line: Molar enthalpy of transition or fusion. The conditions noted are these: Crystal; DSC.
Data set [3] in a line: molar enthalpy of vaporization or sublimation. The following applies: 298.15 K, vacuum sublimation/vaporization calorimetry.

`N#Cc1ccc2c(c1)OCO2` [3,4-methylenedioxybenzonitrile]: the Normal melting temperature in data set [1] turned out to be 93.11 ± 0.39 °C. In addition, the “Molar enthalpy of transition or fusion” value in data set [2] was 4.97 ± 0.12 kcal/mol. In data set [3] (Crystal), the molar enthalpy came to 21.7 ± 0.43 kcal/mol.

Regarding `CC(=O)c1ccc2c(c1)OCO2` [5-oxoethyl-1,3-benzodioxole], the Normal melting temperature in data set [1] turned out to be 85.72 ± 0.39 °C. For the same molecule, in data set [2], the “Molar enthalpy of transition or fusion” value is 6.27 ± 0.141 kcal/mol. The molar enthalpy in data set [3] (Crystal) was 25 ± 1.03 kcal/mol.

As for `O=[N+]([O-])c1ccc2c(c1)OCO2` [1,2-(methylenedioxy)-4-nitrobenzene], the Normal melting temperature in data set [1] was determined as 147.01 ± 0.39 °C. Also, the “Molar enthalpy of transition or fusion” value in data set [2] was 6.74 ± 0.287 kcal/mol. Further, the molar enthalpy in data set [3] (Crystal) was 23.3 ± 1.03 kcal/mol.

For the molecule `Cc1ccc2c(c1)OCO2` [5-methyl-1,3-benzodioxole], the molar enthalpy in data set [3] (Liquid) is 13.1 ± 0.55 kcal/mol.
